Measured values: patent publication US12006330B2, “Substituted macrocyclic compounds and related methods of treatment” (Alkermes, Inc., priority 2020, dated 2024)

Columns and labels:
[1] = molecular target: T1, human orexin-2 receptor (OX2R) (Homo sapiens, UniProt O43614); assay: Human OX2R IP1 assay; assay type: cell-based; details: T-Rex CHO cells stably overexpressing human OX2R; IP1 accumulation; 1 hr at 37 degrees C; mean EC50
T1 construct: expressed in transfected cells
T1 sequence (O43614 1-444): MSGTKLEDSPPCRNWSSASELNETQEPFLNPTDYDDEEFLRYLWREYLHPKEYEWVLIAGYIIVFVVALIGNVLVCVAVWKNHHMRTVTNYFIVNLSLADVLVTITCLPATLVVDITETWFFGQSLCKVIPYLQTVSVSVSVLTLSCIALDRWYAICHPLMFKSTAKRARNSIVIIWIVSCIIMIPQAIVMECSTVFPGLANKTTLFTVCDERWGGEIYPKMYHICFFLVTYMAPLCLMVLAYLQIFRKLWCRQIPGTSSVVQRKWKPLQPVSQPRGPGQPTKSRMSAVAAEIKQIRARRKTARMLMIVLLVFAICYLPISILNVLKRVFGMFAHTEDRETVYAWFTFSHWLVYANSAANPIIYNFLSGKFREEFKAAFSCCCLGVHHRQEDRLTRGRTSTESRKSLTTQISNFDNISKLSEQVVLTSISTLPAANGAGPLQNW
Procedure, shortened: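 T-Rex CHO cells stably expressing human OX2R, doxycycline-induced (1 μg/mL) overnight, treated with compounds 1 h at 37 °C in pH 7.4 buffer with 50 mM LiCl. IP1 accumulation read by HTRF competitive immunoassay after 1 h at room temperature; agonist EC50 reported as mean ± S.E.M.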

[2] = tested on: MDCK-MDR1 cells; assay: MDCK-MDR1 permeability assay; assay type: in vitro ADME; details: MDCK-MDR1 cells
Procedure, shortened: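 Test compound at 3 μM in HBSS was dosed apical-to-basolateral (with 100 μM Lucifer Yellow) and basolateral-to-apical across MDCK-MDR1 monolayers at 37 °C for 2 h. Receiver and donor samples were quantified by LC-MS/MS. Papp = dQ/dt×1/A×C0, efflux ratio = Papp(B→A)/Papp(A→B), and percent recovery was also derived.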

[3] = tested on: human hepatocytes; assay: Hepatocytes stability assay (human hepatocytes); assay type: in vitro ADME
Procedure, shortened: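 Compound at 1 μM (0.1% DMSO) was incubated with cryopreserved pooled human hepatocytes, 1×10^6 cells/mL in Krebs-Henseleit buffer, at 37 °C, sampled up to 240 min. Parent depletion by LC-MS/MS; half-life from first-order decay gave CLint, scaled to hepatic clearance by well-stirred model (fu assumed 1) and extraction ratio.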

For `Cc1ccnc2c1[C@H]1CC[C@H](CC1)OCC1[C@@H](NS(=O)(=O)C3CCOC3)CCCN1C(=O)CO2` (stereo in doubt) [Compound 90], the EC50 [1] was < 0.01 µM, the “Efflux ratio (ER)” value ([2]; Papp B→A divided by Papp A→B, 3 μM, 2 hours) was 48 and the “Papp A → B (10^−6 cm/s)” value ([2]; test compound 3 μM, 2 hours at 37 degrees C, apical to basolateral) was 0.62 10^−6 cm/s. The “CLint (μL/min/million cells)” value ([3]; cryopreserved human hepatocytes (pool of 50 mixed gender), 1 μM test compound, 1×10^6 cell/mL, 37 degrees C) was 11 μL/min/million cells and the “Extraction Ratio (ER)” value ([3]; human hepatocytes, scaled hepatic clearance divided by liver blood flow (well-stirred model, fu assumed unity)) was 0.61.
